Laboratory results as given in patent US20070259907A1, “ARYL AND ARYLALKYLENYL SUBSTITUTED THIAZOLOQUINOLINES AND THIAZOLONAPHTHYRIDINES” (priority 2004, published 2007).

SMILES | melting point [°C]
CCCc1nc2c(N)nc3ccc(-c4cccc(NC(C)=O)c4)cc3c2s1 [Example 135, N-[3-(4-Amino-2-propylthiazolo[4,5-c]quinolin-8-yl)phenyl]acetamide] | 242 to 245
CCCc1nc2c(N)nc3cc(-c4cccc(C(=O)N5CCCC5)c4)ccc3c2s1 [Example 43, 2-Propyl-7-[3-(pyrrolidin-1-ylcarbonyl)phenyl]thiazolo[4,5-c]quinolin-4-amine] | 177 to 180
CCCc1nc2c(N)nc3ccc(-c4ccc(CO)cc4)cc3c2s1 [Example 141, [4-(4-Amino-2-propylthiazolo[4,5-c]quinolin-8-yl)phenyl]methanol] | 212 to 214
CCCc1nc2c(N)nc3cc(-c4ccc(NC(C)=O)cc4)ccc3c2s1 [Example 44, N-[4-(4-Amino-2-propylthiazolo[4,5-c]quinolin-7-yl)phenyl]acetamide] | 252 to 255
CCCc1nc2c(N)nc3cc(-c4ccccc4CO)ccc3c2s1 [Example 3, [2-(4-Amino-2-propylthiazolo[4,5-c]quinolin-7-yl)phenyl]methanol] | 216 to 219
CCCc1nc2c(N)nc3cc(-c4ccc(F)cc4CN)ccc3c2s1 [Example 51, 7-[2-(Aminomethyl)-4-fluorophenyl)-2-propylthiazolo[4,5-c]quinolin-4-amine] | 181 to 184
CCCc1nc2c(N)nc3cc(-c4cccc(NS(C)(=O)=O)c4)ccc3c2s1 [Example 2, N-[3-(4-Amino-2-propylthiazolo[4,5-c]quinolin-7-yl)phenyl]methanesulfonamide] | 228 to 231
CCCc1nc2c(N)nc3ccc(-c4cccc(S(C)(=O)=O)c4)cc3c2s1 [Example 134, 8-[3-(Methylsulfonyl)phenyl]-2-propylthiazolo[4,5-c]quinolin-4-amine] | 252 to 255
CCCc1nc2c(N)nc3cc(-c4cccc(CN)c4)ccc3c2s1 [Example 50, 7-(3-Aminomethylphenyl)-2-propylthiazolo[4,5-c]quinolin-4-amine] | 168 to 171
CCCc1nc2c(N)nc3ccc(-c4cccc(NS(C)(=O)=O)c4)cc3c2s1 [Example 138, N-[3-(4-Amino-2-propylthiazolo[4,5-c]quinolin-8-yl)phenyl]methanesulfonamide] | 244 to 246
CCCc1nc2c(N)nc3cc(-c4cccc(S(C)(=O)=O)c4)ccc3c2s1 [Example 48, 7-[3-(Methylsulfonyl)phenyl]-2-propylthiazolo[4,5-c]quinolin-4-amine] | 242 to 245
CCCc1nc2c(N)nc3cc(-c4cccc(C(=O)N5CCOCC5)c4)ccc3c2s1 [Example 4, 7-[3-(Morpholin-4-ylcarbonyl)phenyl]-2-propylthiazolo[4,5-c]quinolin-4-amine] | 190 to 193
CCCc1nc2c(N)nc3ccc(-c4ccccc4CO)cc3c2s1 [Example 139, [2-(4-Amino-2-propylthiazolo[4,5-c]quinolin-8-yl)phenyl]methanol] | 194 to 196
CCCc1nc2c(N)nc3cc(-c4cccc(CO)c4)ccc3c2s1 [Example 1, [3-(4-Amino-2-propylthiazolo[4,5-c]quinolin-7-yl)phenyl]methanol] | 186 to 188
CCCc1nc2c(N)nc3ccc(-c4cccc(CN)c4)cc3c2s1 [Example 142, 8-[3-(Aminomethyl)phenyl]-2-propylthiazolo[4,5-c]quinolin-4-amine] | 189 to 191
CCCc1nc2c(N)nc3cc(-c4cccc(NC(C)=O)c4)ccc3c2s1 [Example 49, N-[3-(4-Amino-2-propylthiazolo[4,5-c]quinolin-7-yl)phenyl]acetamide] | 173 to 176
CCCc1nc2c(N)nc3ccc(-c4ccc(NC(C)=O)cc4)cc3c2s1 [Example 137, N-[4-(4-Amino-2-propylthiazolo[4,5-c]quinolin-8-yl)phenyl]acetamide] | 251 to 254
CCCc1nc2c(N)nc3ccc(-c4ccc(F)cc4CN)cc3c2s1 [Example 136, 8-[2-(Aminomethyl)-4-fluorophenyl]-2-propylthiazolo[4,5-c]quinolin-4-amine] | 198 to 201
CCCc1nc2c(N)nc3ccc(-c4ccc(CN)cc4)cc3c2s1 [Example 143, 8-[4-(Aminomethyl)phenyl]-2-propylthiazolo[4,5-c]quinolin-4-amine] | 225 to 226
CCCc1nc2c(N)nc3cc(-c4cccc(C(=O)N(CC)CC)c4)ccc3c2s1 [Example 42, 3-(4-Amino-2-propylthiazolo[4,5-c]quinolin-7-yl)-N,N-diethylbenzamide] | 169 to 172
CCCc1nc2c(N)nc3cc(-c4cccc(C(=O)NC5CC5)c4)ccc3c2s1 [Example 45, 3-(4-Amino-2-propylthiazolo[4,5-c]quinolin-7-yl)-N-cyclopropylbenzamide] | 251 to 254
CCCc1nc2c(N)nc3cc(-c4ccccc4NC(C)=O)ccc3c2s1 [Example 46, N-[2-(4-Amino-2-propylthiazolo[4,5-c]quinolin-7-yl)phenyl]acetamide] | 206 to 209
CCCc1nc2c(N)nc3ccc(-c4cccc(CO)c4)cc3c2s1 [Example 140, [3-(4-Amino-2-propylthiazolo[4,5-c]quinolin-8-yl)phenyl]methanol] | 176 to 177
CCCc1nc2c(N)nc3cc(-c4ccccc4C(N)=O)ccc3c2s1 [Example 47, 2-(4-Amino-2-propylthiazolo[4,5-c]quinolin-7-yl)benzamide] | 274 to 276
